The values that follow come from publication PMC11219871, “Epigenetic-based differentiation therapy for Acute Myeloid Leukemia” (Nature Communications, 2024).

What all share (type): cell-based, human
In one series the test system is ML-2. The series is described as follows: Proteome analysis (LC-MS/MS). To be noted: ML-2, 25% GI50, 12 h. The protocol:
After cooling down, lysates were incubated at 25 °C with 10 units of DNAse (Benzonase, Merk) and sonicated for 15 min in a Bioruptor for DNA shearing. Protein concentration was determined using microBCA, using BSA as standard. […] LysC, Wako). […] Peptides (500 μg) were labeled with Thermo Scientific […] Isobaric reagents for 1 h at 25 C. […] The final mixture was desalted using a 500 mg Sep-Pak C18t cartridge (Waters) and dried prior to high pH reverse phase HPLC pre-fractionation. Labeled peptides were fractionated offline through a high pH reverse phase chromatography using an Ultimate 3000 HPLC system equipped with a sample collector. Briefly, peptides were dissolved in 1200 μL of Buffer A (10 mM NH4OH) and loaded onto a XBridge BEH130 C18 column (3.5 μm, 250 mm length and 3.5 mm ID, Waters). […] One-minute fractions (500 μL) from minute 15 to 65 were collected and neutralized with 10% formic acid. […] Pooled fractions were snap-frozen and lyophilized. LC-MS/MS was done by coupling an UltiMate 3000 RSLCnano LC system to an Orbitrap Exploris 480 mass spectrometer (Thermo Fisher Scientific). […] The mass spectrometer was operated in a data-dependent mode, with an automatic switch between MS and MS/MS scans using a top 15 method. (Intensity threshold ≥ 1e4, dynamic exclusion of 20 sec and excluding charges unassigned, +1 and ≥ +7). MS spectra were acquired from 350 to 1500 m/z with a resolution of 60,000 FMHW (200 m/z). Ion peptides were isolated using a 0.7 Th window and fragmented using higher-energy collisional dissociation (HCD) with a normalized collision energy NCE of 36. MS/MS spectra were acquired with a fixed first mass of 120 m/z and a resolution of 45,000 FMHW (200 m/z). […] For total protein analysis, raw files were processed with MaxQuant (v 2.4.9.0) using the standard settings against the same protein database. […] Briefly, proteins/sites with less than eighteen valid values were filtered out. Then, a global normalization of log2-transformed intensities across samples was performed using the LOESS function. Differential analysis was done using the empirical Bayes statistics Limma. […] The FDR was estimated to be below 2% by Benjamini-Hochberg.

A further series deals with HL-60. The experiment in a line: Differentiation-apoptosis assay, CD11b / annexin-V / Sytox Green / myeloid markers flow cytometry. Further details: Cell viability (%): concentration or dose not given beside the values; CD11b levels: unit not given here. To be noted: for Annexin V (%) Replicate 1 / Annexin V (%) Replicate 2 / Annexin V (%) Replicate 3 / CD11b (%) Replicate 1 / CD11b (%) Replicate 2 / CD11b (%) Replicate 3: HL-60, daily 25% GI50, 48 h. The procedure, abridged: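 HL-60 cells were stained for the myeloid differentiation marker CD11b, with annexin-V and Sytox Green marking apoptosis and cell death. Cells were washed in PBS and resuspended at 1 × 10^6 cells/mL in binding buffer; marker staining of 1 million cells was for 30 min at room temperature in the dark, followed by red-cell lysis. Readout was flow cytometry.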
Background: A flow cytometer gives signals particle by particle.

In series [1] the test system is primary AML patient samples. The series is described as follows: Differentiation assay, CD11b flow cytometry in primary samples. Conditions: for CD11b-positive cells (%): daily 48 h. The protocol:
Next, the cells were washed twice with phosphate-buffered saline (PBS) and resuspended in 1X Binding Buffer at a concentration of 1 × 10^6 cells/mL. An 8-µL aliquot of APC-CD11b (BD Pharmingen, Franklin Lakes, NJ, USA) and 1 µL of FITC annexin-V (AV) (BD Pharmingen, Franklin Lakes, NJ, USA) antibodies were added and incubated for 15 min at room temperature in the dark. Finally, after the addition of 400 µL of 1X Binding Buffer to each tube, samples were collected on a BD FACSCanto flow cytometer (Becton Dickinson, San Jose, CA, USA) and analyzed using FlowJo software.
Peripheral blood (PB) specimens were obtained from preliminarily diagnosed AML patients who had not received any treatment before specimens were collected. All patients gave informed consent for their participation in this study, which was approved by the Clinical Research Ethics Committee of Clínica Universidad de Navarra. Written informed consent was obtained from each participant. PB was mixed with an ammonium chloride-potassium (ACK) buffer lysis (0.15 mol/L NH4Cl, 10 mmol/L KHCO3, 0.1 mmol/L ethylenediaminetetraacetic acid, pH 7.2) at a 1:2 volume ratio by gentle inversion, incubated for 10 min and centrifuged at 200 g for 10 min. The cell pellet was washed twice with PBS and finally resuspended in EGM2 medium (Cambrex Bioscience, Walkersville, MD). EGM2 contains 2% fetal calf serum, hydrocortisone, heparin, antibiotics, epidermal growth factor, human fibroblast growth factor, insulin-like growth factor, vascular endothelial growth factor, and ascorbic acid. The cells were plated at 1 × 10^6 cells/mL and treated daily with 200 and 500 nM of CM-444 and CM-1758 for 48 h. Next, the differentiation assay was performed as described above.

Where [2] appears, read: HL-60, 48 h treatment, replicates 1-3 (Suppl. Fig. 5A).
[3] abbreviates: primary AML patient sample 1 (Figure 2C).
[4] abbreviates: primary AML patient sample 2 (Figure 2C).
The mark [5] stands for this setting: primary AML patient sample 3 (Figure 2C).
Setting [6] is: primary AML patient sample 4 (Figure 2C).
Setting [7] is: primary AML patient sample 5 (Figure 2C).
Setting [8] is: primary AML patient sample 6 (Figure 2C).
The mark [9] stands for this setting: primary AML patient sample 7 (Figure 2C).
The mark [10] stands for this setting: primary AML patient sample 8 (Figure 2C).
The mark [11] stands for this setting: HL-60, daily treatment, time 0 days, replicates 1-3 (Figure 2B).
Where [12] appears, read: HL-60, daily treatment, time 2 days, replicates 1-3 (Figure 2B).
Where [13] appears, read: HL-60, daily treatment, time 4 days, replicates 1-3 (Figure 2B).
The mark [14] stands for this setting: HL-60, daily treatment, time 6 days, replicates 1-3 (Figure 2B).
The mark [15] stands for this setting: HL-60, daily treatment, time 8 days, replicates 1-3 (Figure 2B).
The mark [16] stands for this setting: HL-60 cell line, replicates 1-3 (Figure 2A).

Where “and” joins values, the source holds several entries; their conditions need not be identical. Identical values can stand only once.

As for `Cc1[nH]c2ccccc2c1CCNCc1ccc(/C=C/C(=O)NO)cc1` [Panobinostat, reference compound], in the series on ML-2, the “proteins significantly regulated, of 8342 quantified” value (from here on “proteins significantly regulated”) amounted to 5.8%. Moreover, in the series with HL-60 (setting [2]), the “CD11b (%)” value was 10.8% and 18.5%; the “Cell viability (%)” value was 45.2% and 38.6% and 44.9%. For the same molecule, in the series on HL-60, the “Annexin V (%) Replicate 1” value worked out at 20.30%, the “Annexin V (%) Replicate 2” value stood at 24.90%, the “Annexin V (%) Replicate 3” value is recorded as 22.00% and the “CD11b (%) Replicate 1” value was determined as 12.07%. Also, in the series on HL-60, the “CD11b (%) Replicate 2” value is 18.60% and the “CD11b (%) Replicate 3” value was determined as 12.38%.

Turning to `COc1cc2nc(-c3cc(C)oc3C)cc(NCC3CCN(c4ncc(C(=O)NO)cn4)CC3)c2cc1OC` [CM-1758, 2-[4-[[[2-(2,5-dimethyl-3-furyl)-6,7-dimethoxy-4-quinolyl]amino]methyl] -1-piperidyl]pyrimidine-5-carbohydroxamic acid], the “CD11b (%)” value in series [1] (setting [3]) was determined as 43.21%; in series [1] (setting [4]) it was 30.14%; in series [1] (setting [5]), 23.69%; in series [1] (setting [6]) it was 38.45%; in series [1] (setting [7]), 30.14%; in series [1] (setting [8]), 35.24%. In addition, the “CD11b (%)” value in series [1] (setting [9]) is 35.47%; in series [1] (setting [10]) it was 25.49%; with HL-60 (HL-60, 48 h), 71.2%; with HL-60 (setting [2]), 65.4% and 71.1% and 68.4%; with HL-60 (setting [11]), 13.33% and 12.5% and 10.8%; in the series with HL-60 (setting [12]) it was 74.44% and 64.2% and 68.7%. The “CD11b (%)” value is 86.57% and 79.2% and 77.3% with HL-60 (setting [13]); 94.42% and 89.2% and 90.5% in the series on HL-60 (setting [14]); 96% and 92.9% and 94.7% with HL-60 (setting [15]); 81.73% and 89.6% and 92.1% with HL-60 (setting [16]). Moreover, the “CD11b-positive cells (%)” value turned out to be 30.6% in series [1] (sample AML-1, 200 nM); 43.2% in series [1] (sample AML-1, 500 nM); 15.2% in series [1] (sample AML-2, 200 nM); 30.1% in series [1] (sample AML-2, 500 nM); 15.5% in series [1] (sample AML-3, 200 nM); 23.7% in series [1] (sample AML-3, 500 nM). The “CD11b-positive cells (%)” value is listed as 21.9% in series [1] (sample AML-4, 200 nM); 38.4% in series [1] (sample AML-4, 500 nM); 19.2% in series [1] (sample AML-5, 200 nM); 30.1% in series [1] (sample AML-5, 500 nM); 27.2% in series [1] (sample AML-6, 200 nM); 35.2% in series [1] (sample AML-6, 500 nM). Further, the “CD11b-positive cells (%)” value in series [1] (sample AML-7, 200 nM) is 30.1%; in series [1] (sample AML-7, 500 nM) it was 35.5%; in series [1] (sample AML-8, 200 nM), 16.2%; in series [1] (sample AML-8, 500 nM), 25.5%. In addition, the “proteins significantly regulated” value in the series on ML-2 came to 8.8%. The “percentage of CD11b” value with HL-60 (HL-60, 270 nM CM-444 or 300 nM CM-1758 daily for 4 days, before injection) is listed as > 90%. Further, the “CD13 (%)” value in the series on HL-60 (HL-60, 48 h) turned out to be 100%. Moreover, the “CD14 (%)” value in the series with HL-60 (HL-60, 48 h) stood at 18.9%. Moreover, the “HLA-DR (%)” value in the series with HL-60 (HL-60, 48 h) was found to be 12.2%. Further, in the series on HL-60 (setting [2]), the “Cell viability (%)” value is 82.8% and 73.6% and 69.5%. Further, the “differentiation level (CD11b)” value in the series on HL-60 (HL-60, after 6–8 days of treatment) is recorded as ~90%. Also, the “Annexin V (%) Replicate 1” value in the series with HL-60 is 0.26%. Further, the “Annexin V (%) Replicate 2” value with HL-60 turned out to be 0.17%. Besides, in the series with HL-60, the “Annexin V (%) Replicate 3” value was 0.14%. In addition, the “CD11b (%) Replicate 1” value in the series with HL-60 is reported as 55.36%. For the same molecule, the “CD11b (%) Replicate 2” value in the series with HL-60 was 68.41%. Also, the “CD11b (%) Replicate 3” value in the series on HL-60 is on record as 67.15%. In addition, the “Annexin-V (%)” value with HL-60 (setting [11]) was 0% and 4.96% and 3.21%; in the series on HL-60 (setting [12]), 5.66% and 3.51% and 4.98%; with HL-60 (setting [13]) it was 0% and 4.07% and 5.87%; with HL-60 (setting [14]), 5.76% and 2.68% and 3.98%; in the series with HL-60 (setting [15]), 0% and 5.21% and 6.98%. In addition, in the series on HL-60 (HL-60 treated daily for 48 h, replicates (Fig 6D)), the CD11b levels was 61.2 and 70.4 and 75.9.

Take `O=C(CCCCCCC(=O)Nc1ccccc1)NO` [Vorinostat, reference compound]: the “proteins significantly regulated” value in the series with ML-2 is 2.7%. For the same molecule, in the series on HL-60 (setting [2]), the “CD11b (%)” value is 30.8% and 39.8% and 27.7%; the “Cell viability (%)” value is 74.2% and 83.6% and 75%.

For the molecule `CC1=C(/C=C/C(C)=C/C=C/C(C)=C/C(=O)O)C(C)(C)CCC1` [ATRA, all-trans retinoic acid, reference compound], the “CD11b (%)” value in series [1] (setting [3]) was 26.1%; in series [1] (setting [4]), 17.45%; in series [1] (setting [5]), 10.26%; in series [1] (setting [6]), 25.36%; in series [1] (setting [7]), 15.2%; in series [1] (setting [8]), 16.3%. Also, the “CD11b (%)” value is 29.3% in series [1] (setting [9]); 13.25% in series [1] (setting [10]); 10.3% and 15.8% and 12.06% in the series on HL-60 (setting [16]). Besides, the “CD11b-positive cells (%)” value in series [1] (sample AML-1, 2 µM) turned out to be 26.1%; in series [1] (sample AML-2, 2 µM), 17.5%; in series [1] (sample AML-3, 2 µM), 10.3%; in series [1] (sample AML-4, 2 µM) it was 25.4%; in series [1] (sample AML-5, 2 µM), 15.2%; in series [1] (sample AML-6, 2 µM), 16.3%. Also, the “CD11b-positive cells (%)” value is 29.3% in series [1] (sample AML-7, 2 µM) and 13.3% in series [1] (sample AML-8, 2 µM). The “Annexin V (%) Replicate 1” value in the series on HL-60 is 0.34%. Besides, in the series with HL-60, the “Annexin V (%) Replicate 2” value is given as 0.98%. In the series with HL-60, the “Annexin V (%) Replicate 3” value is 0.97%. Besides, the “CD11b (%) Replicate 1” value in the series with HL-60 was found to be 10.12%. Moreover, in the series on HL-60, the “CD11b (%) Replicate 2” value is reported as 15.48%. Moreover, the “CD11b (%) Replicate 3” value with HL-60 was found to be 12.56%.
